The values below come from patent publication US20180178030A1, “PHOTODYNAMIC THERAPEUTIC METHOD FOR TREATING DENTAL INFECTION” (Olighter Co. Ltd., priority 2016, published 2018).

The test system of experiment [1] is G (−) bacteria (Aggregatibacter actinomycetemcomitans, Fusobacterium nucleatum, Porphyromonas gingivalis). The experiment in a line: in vitro bacterial disinfection by photodynamic therapy method (FIG. 8), G (−) bacteria. Format: cell-based. To be noted: photosensitizer plus infrared laser ray 808 nanometers, irradiation about 5 minutes. An excerpt:
(§1) One group assay represents the different bacterial disinfection by using the photodynamic therapy method in vitro with a specific irradiated wavelength of the light, and the other group assay represents the different bacterial disinfection by using the photodynamic therapy method in vitro with a specific compound X and the specific irradiated wavelength of the light.
(§2) The light is infrared laser ray. The specific irradiated wavelength of the infrared laser ray of is 808 nanometers. The specific compound X is a photosensitizer. The photosensitizer is the indocyanine green dye. The period of irradiating the bacteria is about 5 minutes. The bacteria include gram positive (G (+)) bacteria and gram negative (G (−)) bacteria. The G (+) bacteria include a Streptococcus mutans (S. mutans) and a Streptococcus sobrinus (S. sobrinus). The G (−) bacteria include an Aggregatibacter actinomycetemcomitans (A. actinomycetemcomitans), a Fusobacterium nucleatum (F. nucleatum), and a Porphyromonas gingivalis (P. gingivalis).
(§3) Referring to FIG. 8, when the photodynamic therapy method in vitro uses the specific photosensitizer and the specific irradiated wavelength of the light, the G (+) bacterial show the percentage growth rate as zero, and the G (−) bacteria show the percentage growth rate as less than 20%.

For experiment [2], the system named is G (+) bacteria (Streptococcus mutans, Streptococcus sobrinus). The experiment can be described thus: in vitro bacterial disinfection by photodynamic therapy method (FIG. 8), G (+) bacteria. Format: cell-based. To be noted: photosensitizer plus infrared laser ray 808 nanometers, irradiation about 5 minutes.
Description: as §1, §2, §3

Regarding `CC1(C)C(/C=C/C=C/C=C/C=C2\N(CCCCS(=O)(=O)O)c3ccc4ccccc4c3C2(C)C)=[N+](CCCCS(=O)(=O)[O-])c2ccc3ccccc3c21` [specific photosensitizer, indocyanine green], the “percentage growth rate of the bacteria” value in experiment [1] was “less than 20%”; in experiment [2], “zero”.
